{"source": "ChEMBL document CHEMBL1201862", "about": "“PubChem BioAssay data set” (2004)", "key": {"[1]": {"target": "SWI/SNF-related matrix-associated actin-dependent regulator of chromatin subfamily A member 2 (Homo sapiens, UniProt P51531)", "sequence (P51531 whole entry)": "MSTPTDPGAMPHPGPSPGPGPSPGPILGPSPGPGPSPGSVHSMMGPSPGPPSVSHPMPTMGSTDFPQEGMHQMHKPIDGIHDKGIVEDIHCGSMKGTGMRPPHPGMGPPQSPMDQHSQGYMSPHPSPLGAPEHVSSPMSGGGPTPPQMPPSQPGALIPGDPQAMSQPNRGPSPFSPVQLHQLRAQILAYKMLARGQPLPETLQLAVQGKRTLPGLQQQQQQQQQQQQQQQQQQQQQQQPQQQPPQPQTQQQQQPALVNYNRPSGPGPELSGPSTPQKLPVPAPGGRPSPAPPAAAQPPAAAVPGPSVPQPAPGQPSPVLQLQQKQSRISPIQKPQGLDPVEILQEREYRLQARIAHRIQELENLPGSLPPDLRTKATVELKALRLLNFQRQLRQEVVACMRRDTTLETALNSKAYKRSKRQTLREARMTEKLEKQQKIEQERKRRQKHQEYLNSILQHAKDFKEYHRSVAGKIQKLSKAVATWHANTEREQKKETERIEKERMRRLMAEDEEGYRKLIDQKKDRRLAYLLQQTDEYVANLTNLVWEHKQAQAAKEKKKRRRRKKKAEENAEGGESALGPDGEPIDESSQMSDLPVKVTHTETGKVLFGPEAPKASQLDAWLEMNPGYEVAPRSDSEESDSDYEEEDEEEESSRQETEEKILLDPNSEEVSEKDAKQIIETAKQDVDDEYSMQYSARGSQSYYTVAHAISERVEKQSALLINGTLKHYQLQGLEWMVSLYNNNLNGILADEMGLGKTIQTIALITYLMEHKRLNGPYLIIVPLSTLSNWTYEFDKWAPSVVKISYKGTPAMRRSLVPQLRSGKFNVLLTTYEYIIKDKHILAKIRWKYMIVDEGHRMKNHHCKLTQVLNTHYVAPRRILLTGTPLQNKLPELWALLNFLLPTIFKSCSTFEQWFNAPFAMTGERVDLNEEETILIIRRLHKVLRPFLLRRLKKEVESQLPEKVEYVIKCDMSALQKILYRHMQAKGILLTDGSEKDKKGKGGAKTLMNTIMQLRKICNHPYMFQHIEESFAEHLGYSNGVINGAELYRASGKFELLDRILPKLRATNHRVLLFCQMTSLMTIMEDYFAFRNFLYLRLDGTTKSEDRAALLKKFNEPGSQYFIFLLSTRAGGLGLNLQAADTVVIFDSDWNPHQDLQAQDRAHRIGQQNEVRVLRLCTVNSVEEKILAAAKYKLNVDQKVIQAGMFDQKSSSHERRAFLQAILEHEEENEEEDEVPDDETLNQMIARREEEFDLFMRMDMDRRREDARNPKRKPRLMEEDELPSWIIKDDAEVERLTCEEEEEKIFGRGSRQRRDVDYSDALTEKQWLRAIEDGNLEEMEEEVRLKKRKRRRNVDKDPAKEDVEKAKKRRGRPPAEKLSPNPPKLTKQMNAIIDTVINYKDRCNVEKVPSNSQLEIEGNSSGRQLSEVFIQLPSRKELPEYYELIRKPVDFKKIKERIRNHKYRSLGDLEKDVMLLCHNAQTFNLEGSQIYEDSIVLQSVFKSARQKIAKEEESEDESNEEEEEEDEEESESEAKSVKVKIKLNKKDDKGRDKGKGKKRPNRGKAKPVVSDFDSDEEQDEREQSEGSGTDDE", "experiment": "Luminescence-based cell-based high throughput dose response assay to identify activators of the function of SWI/SNF related, matrix associated, actin dependent regulator of chromatin, subfamily a, member 2 (SMARCA2, BRM).", "format": "functional"}, "[2]": {"experiment": "inhibition of ARNT PAS-B/TACC3 complex formation – biochemical, AlphaScreen, cherry-picked samples, confirmation (AID 651703);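 also: His-tagged ARNT PAS-B domain paired with GST-TACC3 E629A dimer coactivator fragment; potency of inhibitors that break up the complex and lower AlphaScreen signal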", "format": "functional, Homo sapiens"}, "[3]": {"target": "T1, Rac GTPase-activating protein 1 (Homo sapiens, UniProt Q9H0H5)", "T1 sequence (Q9H0H5 whole entry)": "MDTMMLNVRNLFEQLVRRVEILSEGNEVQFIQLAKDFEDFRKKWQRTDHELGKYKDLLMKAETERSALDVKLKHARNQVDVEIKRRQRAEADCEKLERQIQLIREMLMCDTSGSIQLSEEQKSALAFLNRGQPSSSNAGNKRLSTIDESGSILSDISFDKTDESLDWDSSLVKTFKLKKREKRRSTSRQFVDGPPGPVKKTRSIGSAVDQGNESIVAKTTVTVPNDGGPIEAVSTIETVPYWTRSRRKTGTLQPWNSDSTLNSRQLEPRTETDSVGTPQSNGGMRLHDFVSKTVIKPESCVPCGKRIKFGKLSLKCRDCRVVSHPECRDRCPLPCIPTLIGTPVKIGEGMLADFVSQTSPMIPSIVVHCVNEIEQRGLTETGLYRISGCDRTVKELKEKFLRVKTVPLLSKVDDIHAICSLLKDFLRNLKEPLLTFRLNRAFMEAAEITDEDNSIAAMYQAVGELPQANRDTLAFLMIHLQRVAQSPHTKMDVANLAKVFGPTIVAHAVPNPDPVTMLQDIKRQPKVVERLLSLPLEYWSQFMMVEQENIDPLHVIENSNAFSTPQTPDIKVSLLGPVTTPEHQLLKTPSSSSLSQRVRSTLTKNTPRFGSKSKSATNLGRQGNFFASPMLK", "experiment": "blockers of MgcRacGAP-driven Rac1 GTP hydrolysis – biochemical, ADP Hunter fluorescence, primary and confirmatory, confirmation (AID 624330)", "format": "functional"}, "[4]": {"experiment": "viability loss in HeLa cells – cytotoxicity control for MgcRacGAP inhibitor project, dose response (AID 624300)", "format": "functional"}, "HeLa": {"system": "HeLa", "experiment": "viability loss in HeLa cells – cell-based, 24 h, cherry-picked samples, cytotoxicity control, dose response (AID 504726);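 also: potency for cytotoxicity as loss of luminescence signal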", "format": "functional", "conditions": "Homo sapiens"}, "HEK293 [5]": {"system": "HEK293", "experiment": "cells", "conditions": "Homo sapiens"}, "Keap1/Nrf2": {"target": "Keap1/Nrf2 (Homo sapiens, UniProt Q14145)", "experiment": "disruptors of Keap1 binding to Nrf2 peptide – biochemical, fluorescence polarization, cherry-picked samples, dose response (AID 588683)"}, "ORF 73": {"target": "ORF 73 (Human herpesvirus 8, UniProt O40947)", "sequence (O40947 whole entry)": "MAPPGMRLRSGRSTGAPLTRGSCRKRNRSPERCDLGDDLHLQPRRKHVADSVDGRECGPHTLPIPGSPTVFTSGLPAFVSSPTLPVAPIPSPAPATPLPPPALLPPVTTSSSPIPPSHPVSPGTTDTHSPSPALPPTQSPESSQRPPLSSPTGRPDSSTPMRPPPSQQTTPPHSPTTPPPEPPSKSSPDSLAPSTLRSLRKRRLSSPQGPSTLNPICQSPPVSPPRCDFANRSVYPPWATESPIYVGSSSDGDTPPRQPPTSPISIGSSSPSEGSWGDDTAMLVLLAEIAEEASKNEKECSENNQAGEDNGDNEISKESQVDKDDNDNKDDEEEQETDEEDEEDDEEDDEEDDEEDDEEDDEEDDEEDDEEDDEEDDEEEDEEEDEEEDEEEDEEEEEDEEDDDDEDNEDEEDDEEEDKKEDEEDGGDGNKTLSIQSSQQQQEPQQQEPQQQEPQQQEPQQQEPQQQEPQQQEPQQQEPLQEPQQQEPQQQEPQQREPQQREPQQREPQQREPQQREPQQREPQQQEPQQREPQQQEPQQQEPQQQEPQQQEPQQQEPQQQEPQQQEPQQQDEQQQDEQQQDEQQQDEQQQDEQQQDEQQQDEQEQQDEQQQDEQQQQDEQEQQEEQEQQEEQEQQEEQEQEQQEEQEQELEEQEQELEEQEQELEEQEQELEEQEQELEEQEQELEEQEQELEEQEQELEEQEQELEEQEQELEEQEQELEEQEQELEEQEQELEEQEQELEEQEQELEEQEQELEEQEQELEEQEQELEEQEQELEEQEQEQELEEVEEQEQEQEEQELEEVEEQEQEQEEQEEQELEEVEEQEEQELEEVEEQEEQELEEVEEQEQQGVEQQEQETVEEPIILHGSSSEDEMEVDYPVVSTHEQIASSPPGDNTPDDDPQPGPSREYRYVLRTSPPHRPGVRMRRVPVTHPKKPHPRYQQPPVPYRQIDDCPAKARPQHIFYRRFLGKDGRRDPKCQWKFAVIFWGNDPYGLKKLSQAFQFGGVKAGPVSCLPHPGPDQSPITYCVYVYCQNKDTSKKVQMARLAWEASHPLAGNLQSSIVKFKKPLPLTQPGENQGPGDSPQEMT", "experiment": "KSHV LANA DNA-binding disruption – biochemical, fluorescence polarization, cherry-picked samples, dose response (AID 504725);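 also: fluorescence polarization of a labeled DNA duplex reporting LANA DNA binding; potency is for inhibitors that block LANA binding to the DNA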", "set-up": "species or system Human gammaherpesvirus 8"}, "[6]": {"experiment": "Counterscreen for activators of the function of SWI/SNF related, matrix associated, actin dependent regulator of chromatin, subfamily a, member 2 (SMARCA2, BRM): Luminescence-based cell-based high throughput dose response assay to identify non-selective compounds using the VP16 reporter assay.", "format": "functional"}, "HEK293 [7]": {"system": "HEK293", "experiment": "cells", "conditions": "Homo sapiens", "remark": "listed apart in the source"}, "[8]": {"target": "Dual specificity protein phosphatase 3 (Homo sapiens, UniProt P51452)", "sequence (P51452 whole entry)": "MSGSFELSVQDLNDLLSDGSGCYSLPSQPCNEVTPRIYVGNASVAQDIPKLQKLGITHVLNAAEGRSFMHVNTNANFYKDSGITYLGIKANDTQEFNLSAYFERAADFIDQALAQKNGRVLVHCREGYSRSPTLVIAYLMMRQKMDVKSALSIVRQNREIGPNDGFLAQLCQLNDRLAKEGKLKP", "experiment": "SAR VHR1 Fluorescent Assay for In Vitro dose response studies Set 3. [Related pubchem assays (depositor defined):AID1654, AID1661, AID1878]", "format": "functional"}, "Jurkat": {"system": "Jurkat", "experiment": "blockers of NF-kB activation in T cells – Jurkat, luciferase reporter, luminescence, B- and T-cell, dose response (AID 489004);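 also: NF-kB luciferase reporter Jurkat cells stimulated with PMA plus ionomycin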", "format": "functional, cell-based", "conditions": "Homo sapiens"}, "[9]": {"experiment": "HEK-293T viability loss, compound-treated – cell-based, uHTS hits, cytotoxicity control for B/T-cell NF-kB inhibitor project, dose response (AID 489019)", "format": "functional"}, "[10]": {"target": "T2, Corticotropin-releasing factor receptor 2/Corticotropin-releasing factor-binding protein (Homo sapiens, UniProt P24387+Q13324)", "T2 sequence (Q13324 whole entry)": "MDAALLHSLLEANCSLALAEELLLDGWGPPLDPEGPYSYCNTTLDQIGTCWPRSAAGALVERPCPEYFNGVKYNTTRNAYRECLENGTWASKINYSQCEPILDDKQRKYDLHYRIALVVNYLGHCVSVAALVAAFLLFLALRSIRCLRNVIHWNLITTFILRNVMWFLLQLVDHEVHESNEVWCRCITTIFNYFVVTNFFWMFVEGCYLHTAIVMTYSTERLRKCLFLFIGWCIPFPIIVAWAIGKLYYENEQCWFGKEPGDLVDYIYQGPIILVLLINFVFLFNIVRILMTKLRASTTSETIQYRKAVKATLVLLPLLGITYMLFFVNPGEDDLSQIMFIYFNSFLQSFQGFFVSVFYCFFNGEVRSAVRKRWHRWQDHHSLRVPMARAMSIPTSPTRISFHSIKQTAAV", "T2 sequence (P24387 whole entry)": "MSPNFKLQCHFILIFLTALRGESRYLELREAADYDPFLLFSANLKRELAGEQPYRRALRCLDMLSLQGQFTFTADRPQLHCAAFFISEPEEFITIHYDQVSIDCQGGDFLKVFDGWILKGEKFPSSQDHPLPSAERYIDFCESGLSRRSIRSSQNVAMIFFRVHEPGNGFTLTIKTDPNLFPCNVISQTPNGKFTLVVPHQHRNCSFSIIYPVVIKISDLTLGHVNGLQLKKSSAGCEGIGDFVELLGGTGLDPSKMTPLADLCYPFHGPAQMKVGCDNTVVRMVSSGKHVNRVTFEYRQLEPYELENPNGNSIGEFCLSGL", "experiment": "Dose Response confirmation of uHTS hits for small molecule antagonists of the CRF-binding protein and CRF-R2 receptor complex.", "format": "functional", "conditions": "read-out: IC50_Mean"}, "Cytochrome P450 3A4": {"target": "Cytochrome P450 3A4 (Homo sapiens, UniProt P08684)", "sequence (P08684 whole entry)": "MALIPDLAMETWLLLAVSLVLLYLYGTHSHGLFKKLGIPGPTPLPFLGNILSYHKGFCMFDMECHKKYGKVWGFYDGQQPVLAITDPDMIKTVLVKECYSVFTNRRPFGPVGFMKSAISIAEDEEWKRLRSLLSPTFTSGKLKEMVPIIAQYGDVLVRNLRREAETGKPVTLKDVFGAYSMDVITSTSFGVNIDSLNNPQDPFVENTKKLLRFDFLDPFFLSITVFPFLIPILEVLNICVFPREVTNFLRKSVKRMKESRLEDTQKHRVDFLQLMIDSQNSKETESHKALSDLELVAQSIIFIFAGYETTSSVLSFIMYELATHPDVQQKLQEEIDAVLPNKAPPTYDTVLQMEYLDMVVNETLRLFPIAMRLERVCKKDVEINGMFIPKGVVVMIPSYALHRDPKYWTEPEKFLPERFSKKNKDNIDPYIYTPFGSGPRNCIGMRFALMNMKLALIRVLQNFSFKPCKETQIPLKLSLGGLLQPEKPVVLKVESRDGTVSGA"}, "[11]": {"target": "T2, Corticotropin-releasing factor receptor 2/Corticotropin-releasing factor-binding protein", "experiment": "activators of CRF receptor 2 with binding protein – uHTS hits, confirmation (AID 602473)", "format": "functional", "conditions": "read-out: EC50_Mean"}, "Phospholipase A2": {"target": "Phospholipase A2 (Homo sapiens, UniProt P04054)", "sequence (P04054 whole entry)": "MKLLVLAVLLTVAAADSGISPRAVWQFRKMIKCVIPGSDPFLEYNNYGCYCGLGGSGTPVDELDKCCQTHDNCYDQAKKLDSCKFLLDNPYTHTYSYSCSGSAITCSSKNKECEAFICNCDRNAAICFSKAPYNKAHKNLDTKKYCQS", "experiment": "phospholipase A2 activity inhibition – biochemical, set 2, counter-screen for ATG4B inhibitor project, dose response (AID 588586)", "format": "functional"}, "Cysteine protease ATG4B": {"target": "T3, Cysteine protease ATG4B (Homo sapiens, UniProt Q9Y4P1)", "T3 sequence (Q9Y4P1 whole entry)": "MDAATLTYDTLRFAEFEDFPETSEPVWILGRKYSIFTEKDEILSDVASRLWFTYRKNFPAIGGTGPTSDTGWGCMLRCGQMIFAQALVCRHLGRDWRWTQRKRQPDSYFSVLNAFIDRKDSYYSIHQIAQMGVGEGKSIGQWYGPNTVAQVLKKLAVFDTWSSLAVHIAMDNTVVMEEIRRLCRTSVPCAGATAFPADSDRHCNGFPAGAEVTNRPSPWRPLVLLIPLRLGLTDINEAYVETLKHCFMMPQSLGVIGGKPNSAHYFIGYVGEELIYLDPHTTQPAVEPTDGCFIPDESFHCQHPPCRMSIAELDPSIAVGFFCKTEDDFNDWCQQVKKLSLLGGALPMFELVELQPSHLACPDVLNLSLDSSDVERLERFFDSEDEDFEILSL", "experiment": "autophagin-1 cysteine protease inhibition – biochemical, fluorescence, set 2, dose response (AID 588584)", "format": "functional"}, "Cytochrome P450 2D6": {"target": "Cytochrome P450 2D6 (Homo sapiens, UniProt P10635)", "sequence (P10635 whole entry)": "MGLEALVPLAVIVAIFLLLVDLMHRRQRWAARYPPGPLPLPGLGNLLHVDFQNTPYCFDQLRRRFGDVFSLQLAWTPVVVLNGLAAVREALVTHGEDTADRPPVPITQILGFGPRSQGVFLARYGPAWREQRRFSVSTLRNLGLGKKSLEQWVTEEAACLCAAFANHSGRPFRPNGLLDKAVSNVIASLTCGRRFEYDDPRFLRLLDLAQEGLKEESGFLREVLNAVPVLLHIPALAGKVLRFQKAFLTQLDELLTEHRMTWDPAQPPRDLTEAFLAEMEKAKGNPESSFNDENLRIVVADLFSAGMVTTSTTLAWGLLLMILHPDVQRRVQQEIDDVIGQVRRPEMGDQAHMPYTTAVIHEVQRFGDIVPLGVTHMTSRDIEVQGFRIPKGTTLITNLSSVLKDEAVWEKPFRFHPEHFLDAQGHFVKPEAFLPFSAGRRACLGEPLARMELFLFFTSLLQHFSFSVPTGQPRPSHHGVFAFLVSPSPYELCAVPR"}, "[12]": {"target": "Delta-type opioid receptor (Homo sapiens, UniProt P41143)", "sequence (P41143 whole entry)": "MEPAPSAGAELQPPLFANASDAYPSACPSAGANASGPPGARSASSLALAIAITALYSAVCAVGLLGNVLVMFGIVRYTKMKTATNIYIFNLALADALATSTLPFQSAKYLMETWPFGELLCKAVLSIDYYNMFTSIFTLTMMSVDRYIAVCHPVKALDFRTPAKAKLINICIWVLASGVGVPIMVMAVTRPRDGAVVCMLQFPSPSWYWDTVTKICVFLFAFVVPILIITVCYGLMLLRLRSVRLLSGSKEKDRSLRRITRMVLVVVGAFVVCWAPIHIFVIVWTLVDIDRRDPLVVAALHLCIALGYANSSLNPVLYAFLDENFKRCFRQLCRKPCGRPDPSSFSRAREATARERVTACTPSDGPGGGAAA", "experiment": "Counterscreen for agonists of heterodimerization of the mu 1 (OPRM1) and delta 1 (OPRD1) opioid receptors: Luminescence-based cell-based high throughput dose response assay to identify agonists of OPRD1 homodimerization. [Related pubchem assays (depositor defined):AID504326, AID504355, AID504692, AID504904, AID504905]", "format": "functional"}, "[13]": {"target": "T4, Short transient receptor potential channel 4 (Mus musculus, UniProt Q9QUQ5)", "T4 sequence (Q9QUQ5 whole entry)": "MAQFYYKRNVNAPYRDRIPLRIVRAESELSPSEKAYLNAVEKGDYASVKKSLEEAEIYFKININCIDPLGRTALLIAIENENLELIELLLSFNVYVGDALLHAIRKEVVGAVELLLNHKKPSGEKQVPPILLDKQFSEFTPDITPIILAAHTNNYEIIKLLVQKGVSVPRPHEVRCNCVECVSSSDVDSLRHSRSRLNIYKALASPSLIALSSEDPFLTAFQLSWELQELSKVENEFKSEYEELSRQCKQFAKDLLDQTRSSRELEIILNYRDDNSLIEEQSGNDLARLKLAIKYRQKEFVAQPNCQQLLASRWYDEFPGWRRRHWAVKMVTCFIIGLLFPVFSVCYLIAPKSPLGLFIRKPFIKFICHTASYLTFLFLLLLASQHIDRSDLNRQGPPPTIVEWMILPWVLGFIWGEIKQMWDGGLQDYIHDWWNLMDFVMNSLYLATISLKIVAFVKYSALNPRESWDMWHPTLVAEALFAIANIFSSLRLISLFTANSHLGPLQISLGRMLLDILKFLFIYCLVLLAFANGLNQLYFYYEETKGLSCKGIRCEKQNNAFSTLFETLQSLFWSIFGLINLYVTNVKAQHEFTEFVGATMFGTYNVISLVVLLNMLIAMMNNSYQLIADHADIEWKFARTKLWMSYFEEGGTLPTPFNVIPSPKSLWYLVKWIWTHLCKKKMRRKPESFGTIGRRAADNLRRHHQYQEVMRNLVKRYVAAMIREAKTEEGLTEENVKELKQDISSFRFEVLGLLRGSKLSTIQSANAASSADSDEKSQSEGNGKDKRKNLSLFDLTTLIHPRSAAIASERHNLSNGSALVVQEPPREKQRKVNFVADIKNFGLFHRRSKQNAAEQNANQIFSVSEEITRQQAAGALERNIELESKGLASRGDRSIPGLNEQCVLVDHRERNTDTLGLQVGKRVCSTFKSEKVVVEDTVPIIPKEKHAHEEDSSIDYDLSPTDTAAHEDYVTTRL", "experiment": "calcium entry via TRPC4 opening agents – cell-based, HEK293 TRPC4/mu-opioid, Fluo-4 calcium, dose response (AID 434937)", "format": "functional"}, "[14]": {"target": "5-hydroxytryptamine receptor 5A (Homo sapiens, UniProt P47898)", "sequence (P47898 whole entry)": "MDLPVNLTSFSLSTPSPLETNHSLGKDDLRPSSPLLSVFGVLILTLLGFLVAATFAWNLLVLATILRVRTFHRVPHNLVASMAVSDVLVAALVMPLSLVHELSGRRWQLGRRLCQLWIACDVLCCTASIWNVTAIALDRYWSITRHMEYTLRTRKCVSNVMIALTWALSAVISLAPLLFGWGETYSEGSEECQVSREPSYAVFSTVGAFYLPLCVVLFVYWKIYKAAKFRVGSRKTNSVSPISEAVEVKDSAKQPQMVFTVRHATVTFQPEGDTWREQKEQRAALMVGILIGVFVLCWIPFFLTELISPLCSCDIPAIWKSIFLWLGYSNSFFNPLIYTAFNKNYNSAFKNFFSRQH", "experiment": "Counterscreen for agonists of OPRM1-OPRD1 heterodimerization: luminescence-based cell-based high throughput dose response assay to identify agonists of 5-hydroxytryptamine (serotonin) 5A receptor (HTR5A). [Related pubchem assays (depositor defined):AID504326, AID504355, AID504692, AID504904, AID504905]", "format": "functional"}, "Mu-type opioid receptor": {"target": "Mu-type opioid receptor (Homo sapiens, UniProt P35372)", "experiment": "Counterscreen for agonists of heterodimerization of the mu 1 (OPRM1) and delta 1 (OPRD1) opioid receptors: Luminescence-based cell-based high throughput dose response assay to identify agonists of OPRM1 homodimerization.", "format": "functional"}}, "note": "The source made the active and inactive calls."}
{"smiles": "CN(C)CCNc1ccc2ncn3c4ccc(O)cc4c(=O)c1c23", "values": [{"measurement": "EC50", "setting": "[1]", "value": "11.5 µM (inactive)"}, {"measurement": "AC50", "setting": "[2]", "value": "89 µM (active)"}, {"measurement": "IC50", "setting": "[3]", "value": "46.8 µM (active)"}, {"measurement": "CC50", "setting": "[4]", "value": "49.2 µM (active)"}, {"measurement": "AC50", "setting": "HeLa", "value": "11.5 µM (active)"}, {"measurement": "EC50", "setting": "HEK293 [5]", "value": "> 59.6 µM (inactive)"}, {"measurement": "AC50", "setting": "Keap1/Nrf2", "value": "3.79 µM (active)"}, {"measurement": "AC50", "setting": "ORF 73", "value": "6.38 µM (active)"}, {"measurement": "EC50", "setting": "[6]", "value": "> 91.1 µM (inactive)"}, {"measurement": "EC50", "setting": "HEK293 [7]", "value": "> 6.62 µM (active)"}]}
{"smiles": "COc1cccc2sc(NC(=O)c3ccc(C(=O)c4ccccc4)cc3)nc12", "values": [{"measurement": "IC50", "setting": "[8]", "value": "> 66 µM (inactive)"}]}
{"smiles": "CCCCCNC(=O)c1ccc2c(=O)n(CC3CCCO3)c(=O)[nH]c2c1", "note": "(stereo not drawn)", "values": [{"measurement": "IC50", "setting": "Jurkat", "value": "> 80 µM (inactive)"}, {"measurement": "IC50", "setting": "[9]", "value": "> 80 µM (inactive)"}]}
{"smiles": "CCOc1ccc(C(=O)Nc2cnn(Cc3ccc(Cl)c(Cl)c3)c2)cc1", "values": [{"measurement": "IC50", "setting": "[10]", "value": "> 47.1 µM (inactive)"}, {"measurement": "AC50", "setting": "Cytochrome P450 3A4", "value": "22.4 µM (inconclusive)"}, {"measurement": "EC50", "setting": "[11]", "value": "> 53 µM (inactive)"}, {"measurement": "IC50", "setting": "Phospholipase A2", "value": "79.1 µM (inactive)"}, {"measurement": "IC50", "setting": "Cysteine protease ATG4B", "value": "68.1 µM (inactive)"}, {"measurement": "AC50", "setting": "Cytochrome P450 2D6", "value": "15.8 µM (inconclusive)"}]}
{"smiles": "Cc1ccccc1N(CC(=O)N/N=C/c1ccc(F)cc1)C(=O)c1ccccc1", "values": [{"measurement": "EC50", "setting": "[12]", "value": "> 92.5 µM (inactive)"}, {"measurement": "EC50", "setting": "[13]", "value": "2.11 µM (active)"}, {"measurement": "EC50", "setting": "[14]", "value": "> 92.5 µM (inactive)"}, {"measurement": "EC50", "setting": "Mu-type opioid receptor", "value": "> 92.5 µM (inactive)"}]}
